In ChEMBL document CHEMBL4373665, “Discovery of new non-acidic lonazolac analogues with COX-2 selectivity as potent anti-inflammatory agents” (Medchemcomm, 2019):

Key:
[1] = molecular target: Prostaglandin G/H synthase 1 (Homo sapiens, UniProt P23219); assay: Inhibition of human recombinant COX1 assessed as decrease in prostaglandin production using arachidonic acid as substrate pretreated for 15 mins followed by substrate addition and measured after 2 mins by enzyme immunoassay; format: single protein
[2] = molecular target: T1, Prostaglandin G/H synthase 2 (Homo sapiens, UniProt P35354); assay: Inhibition of human recombinant COX2 assessed as decrease in prostaglandin production using arachidonic acid as substrate pretreated for 15 mins followed by substrate addition and measured after 2 mins by enzyme immunoassay
T1 sequence (P35354 whole entry): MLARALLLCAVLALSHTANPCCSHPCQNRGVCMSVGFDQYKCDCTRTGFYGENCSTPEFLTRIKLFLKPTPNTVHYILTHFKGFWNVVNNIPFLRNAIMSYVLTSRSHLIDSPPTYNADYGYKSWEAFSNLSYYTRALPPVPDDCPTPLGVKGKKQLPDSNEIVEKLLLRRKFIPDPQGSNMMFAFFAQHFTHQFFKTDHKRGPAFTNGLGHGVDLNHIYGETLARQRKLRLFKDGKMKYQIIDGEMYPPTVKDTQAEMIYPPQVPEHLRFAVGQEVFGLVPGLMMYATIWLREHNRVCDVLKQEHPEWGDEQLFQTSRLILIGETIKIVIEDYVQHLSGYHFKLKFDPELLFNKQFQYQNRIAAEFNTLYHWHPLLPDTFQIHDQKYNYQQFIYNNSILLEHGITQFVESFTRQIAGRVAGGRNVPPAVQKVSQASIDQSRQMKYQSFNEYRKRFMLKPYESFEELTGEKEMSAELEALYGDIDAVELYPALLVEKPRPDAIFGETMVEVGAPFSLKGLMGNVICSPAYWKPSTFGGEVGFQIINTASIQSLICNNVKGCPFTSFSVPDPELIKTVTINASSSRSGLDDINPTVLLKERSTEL

Homo sapiens = species on record: Homo sapiens; assay: Selectivity index, ratio of IC50 for human recombinant COX1 to IC50 for human recombinant COX2 using arachidonic acid as substrate
Rattus norvegicus [3] = assay: Anti-inflammatory activity in albino rat model of carrageenan-induced paw edema assessed as paw edema thickness at 100 mg/kg, po administered as single dose prior to carrageenan challenge measured after 8 hrs; format: functional
Rattus norvegicus [4] = assay: Anti-inflammatory activity in albino rat model of carrageenan-induced paw edema assessed as paw edema thickness at 100 mg/kg, po administered as single dose prior to carrageenan challenge measured after 12 hrs; format: functional
Rattus norvegicus [5] = assay: Anti-inflammatory activity in albino rat model of carrageenan-induced paw edema assessed as inhibition of carrageenan-induced paw edema at 100 mg/kg, po administered as single dose prior to carrageenan challenge measured after 1 hr relative to control; format: functional
Rattus norvegicus [6] = assay: Anti-inflammatory activity in albino rat model of carrageenan-induced paw edema assessed as inhibition of carrageenan-induced paw edema at 100 mg/kg, po administered as single dose prior to carrageenan challenge measured after 3 hrs relative to control; format: functional
Rattus norvegicus [7] = assay: Anti-inflammatory activity in albino rat model of carrageenan-induced paw edema assessed as inhibition of carrageenan-induced paw edema at 100 mg/kg, po administered as single dose prior to carrageenan challenge measured after 4 hrs relative to control; format: functional
Rattus norvegicus [8] = assay: Anti-inflammatory activity in albino rat model of carrageenan-induced paw edema assessed as inhibition of carrageenan-induced paw edema at 100 mg/kg, po administered as single dose prior to carrageenan challenge measured after 8 hrs relative to control; format: functional

Chain of Prostaglandin G/H synthase 1 (P23219 whole entry): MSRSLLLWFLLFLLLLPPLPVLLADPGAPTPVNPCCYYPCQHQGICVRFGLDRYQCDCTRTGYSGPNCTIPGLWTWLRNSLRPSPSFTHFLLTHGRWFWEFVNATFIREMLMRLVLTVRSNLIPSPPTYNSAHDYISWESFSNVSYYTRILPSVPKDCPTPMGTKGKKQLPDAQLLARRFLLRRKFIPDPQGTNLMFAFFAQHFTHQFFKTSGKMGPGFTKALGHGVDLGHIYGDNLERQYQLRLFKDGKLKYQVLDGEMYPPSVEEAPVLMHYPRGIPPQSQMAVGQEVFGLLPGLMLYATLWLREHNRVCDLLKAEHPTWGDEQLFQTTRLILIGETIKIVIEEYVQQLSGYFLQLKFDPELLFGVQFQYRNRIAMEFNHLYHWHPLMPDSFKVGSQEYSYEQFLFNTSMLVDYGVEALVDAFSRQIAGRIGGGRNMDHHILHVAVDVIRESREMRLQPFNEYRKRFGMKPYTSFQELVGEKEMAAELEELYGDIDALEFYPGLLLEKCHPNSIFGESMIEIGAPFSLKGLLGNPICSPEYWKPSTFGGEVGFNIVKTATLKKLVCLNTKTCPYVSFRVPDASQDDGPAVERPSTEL

Row | SMILES | IC50 [1] | IC50 [2] | Ratio IC50 (Homo sapiens) | Activity (Rattus norvegicus [3]) | Activity (Rattus norvegicus [4]) | inhibition in vivo at 100 mg/kg (Rattus norvegicus [5]) | inhibition in vivo at 100 mg/kg (Rattus norvegicus [6]) | inhibition in vivo at 100 mg/kg (Rattus norvegicus [7]) | inhibition in vivo at 100 mg/kg (Rattus norvegicus [8])
1 | Nc1nc(-c2ccc(Cl)cc2)cc(-c2cn(-c3ccccc3)nc2-c2ccc(OCc3ccccc3)cc2)n1 | 0.6 µM | 3.99 µM | 0.15 | 2.17 mm | 1.8 mm | 50.8% | 30.4% | 20.4% | 
2 | S=c1nc(-c2ccccc2)cc(-c2cn(-c3ccccc3)nc2-c2ccc(OCc3ccccc3)cc2)[nH]1 | 0.31 µM | 1 µM | 0.31 | 2.19 mm | 1.88 mm | 48.5% | 33.8% | 14.6% | 
3 | NC(=S)n1nc(-c2ccccc2)cc1-c1cn(-c2ccccc2)nc1-c1ccc(OCc2ccccc2)cc1 | 5.2 µM | 5.2 µM | 1 | 2.2 mm | 1.8 mm | 3.97% | 7.29% | 2.15% | 
4 | NC(=S)n1nc(-c2ccc(Cl)cc2)cc1-c1cn(-c2ccccc2)nc1-c1ccc(OCc2ccccc2)cc1 | 6.07 µM | 4.69 µM | 1.31 |  | 1.89 mm | 47.5% | 24.6% | 24.5% | 5.9%
5 | c1ccc(COc2ccc(-c3nn(-c4ccccc4)cc3-c3cc(-c4ccccc4)no3)cc2)cc1 | 9.57 µM | 2.11 µM | 4.54 |  | 1.83 mm | 73.8% | 42.5% | 28.4% | 6.9%

Further compounds by falling IC50 [1], results first:

Row | IC50 [1] | IC50 [2] | Ratio IC50 (Homo sapiens) | SMILES | Activity (Rattus norvegicus [3]) | Activity (Rattus norvegicus [4]) | inhibition in vivo at 100 mg/kg (Rattus norvegicus [5]) | inhibition in vivo at 100 mg/kg (Rattus norvegicus [6]) | inhibition in vivo at 100 mg/kg (Rattus norvegicus [7]) | inhibition in vivo at 100 mg/kg (Rattus norvegicus [8])
6 | 9.68 µM | 11.6 µM | 0.831 | N#CC1=C(N)OC(c2ccc(Cl)cc2)=CC1c1cn(-c2ccccc2)nc1-c1ccc(OCc2ccccc2)cc1 (stereo unspecified) | 2.31 mm | 1.85 mm | 28.8% | 38.2% | 18.2% | 
7 | 2.72 µM | 2.79 µM | 0.975 | CC(=O)n1nc(-c2ccc(Cl)cc2)cc1-c1cn(-c2ccccc2)nc1-c1ccc(OCc2ccccc2)cc1 | 2.17 mm | 1.82 mm | 69.8% | 49.7% | 25.8% | 
